Laboratory results published in paper PMC9228185, “Accurate Mass Identification of an Interfering Water Adduct and Strategies in Development and Validation of an LC-MS/MS Method for Quantification of MPI8, a Potent SARS-CoV-2 Main Protease Inhibitor, in Rat Plasma in Pharmacokinetic Studies” (Pharmaceuticals, 2022).
Entries after “also recorded” stand apart in the source; their conditions may differ. Read-outs that look alike come from different tables or passages of the source.

How the values were obtained:
[1] = Stability of MPI8 in rat plasma (QC samples, LC-MS/MS); assay type: in vitro ADME
Procedure: The quantification of MPI8 concentrations in extracted plasma samples was performed on a 6500+ Triple Quad LC-MS/MS System using a Kinetex HILIC Column (unbonded silica stationary phase, 2.6 µm, 50 × 2.1 mm, 100 Å, Phenomenex, CA, USA). The optimized method used binary gradient mobile phases with water (containing 1 mM ammonium acetate) as mobile phase A and acetonitrile as mobile phase B. A flow rate of 0.4 mL/min was used with an injection volume of 2 μL. The autosampler and oven temperature were set at 10 °C and 30 °C, respectively. The running time was 5 min. In this study, the HILIC column, widely considered as an NP column, was eluted in a typical RP time program of the gradient: Phase B was initially kept at 5% for 0.2 min, increased from 5% to 90% in the next 1.3 min, then held at 90% for 1 min, and then decreased to 5% in 1.5 min, and kept stably at 5% for 1 min. The unique behavior of MPI8 on a HILIC column, which resembles an RP characteristic, was most likely due to its hydrophobic nature.
Eighteen microliters of blank rat plasma, 2 μL of working solution (10×) (or 20 μL of rat plasma samples from pharmacokinetic studies), and 180 μL of acetonitrile (containing 5 ng/mL of IS) were vortex-mixed for 2 min and then centrifuged at 14,000 rpm for 20 min at 4 °C. Eighty μL of the supernatant were transferred to a sample vial for LC-MS/MS analysis. All samples were kept on ice during sample processing.
The stability of MPI8 was examined by keeping four replicates of the QC samples at room temperature and on ice for 4 h, in the auto-sampler tray at 10 °C for 24 h, and in a freezer at −80 °C for 3 weeks; the freeze-thaw stability was obtained over three freeze-thaw cycles, by thawing at 4 °C for 2–3 h and then refreezing at −80 °C for 12–24 h. The concentration of MPI8 after each storage period was determined using the calibration curve analyzed on the same day. The accuracy was expressed by RE%, and the precision was CV%.

[2] = Crossover pharmacokinetic study in rats after IV or oral MPI8 sulfonate; assay type: in vivo, Sprague-Dawley rats; settings: for AUC(0-t): read-out: AUC0−10 h; for Cmax: po
From the text: The validated assay was applied in a crossover pharmacokinetic study to evaluate the oral bioavailability of MPI8 sulfonate in rats. The animal study protocol (#9132) was reviewed and approved by the Institutional Animal Care and Use Committee (IACUC) at Texas Southern University on 11 July 2020.
Male adult Sprague-Dawley rats were purchased from Envigo RMS (Indianapolis, IN, USA). Rats were cannulated via jugular vein a day before dosing. Three rats were intravenously administered a single dose of 5 mg/kg MPI8 sulfonate (5 mg/mL in 5% dextrose) via the jugular vein. Serial blood samples (about 0.1 mL) were collected from the cannulated jugular vein into heparin-coating tubes before dosing and at 2 min, 5 min, 15 min, 0.5 h, 1 h, 2 h, 4 h, 6 h, 8 h, 10 h, and 24 h time points after administration. After two weeks of washout period, the three rats were fasted overnight and orally administered a single dose of 50 mg/kg MPI8 sulfonate (20 mg/mL in water). Blood samples were collected before dosing and at 15 min, 0.5 h, 1 h, 1.5 h, 2 h, 2.5 h, 3 h, 4 h, 6 h, 8 h, 10 h, and 24 h time points after administration. Briefly, 12 time-point plasma samples from rats dosed intravenously and 13 time-point plasma samples from rats dosed orally were collected. Plasma samples were separated immediately by centrifugation of the blood samples at 13,000 rpm for 3 min and kept at −80 °C until analysis. The samples were processed following the procedure in Section 3.3.3. Three replicates for each time point were analyzed and the results were reported as mean values with standard deviation (SD) for each time point.
The pharmacokinetic parameters for each rat were estimated using Phoenix WinNonlin v8.3 software (Pharsight Corporation, Mountain View, CA, USA). Non-compartmental analysis was used to determine the pharmacokinetic parameters of MPI8. The pharmacokinetic parameters, including the area under the plasma concentration–time curve during the period of measurable observation (AUC0−10h), the area under the plasma concentration–time curve extrapolated to infinity (AUC0−inf), the apparent volume of distribution (Vz/F), the apparent clearance (CL/F), the total body mean residence time (MRT), and the terminal elimination half-life (T1/2) were estimated. The oral bioavailability (F) was calculated according to the following equation:(1) F=AUCoral×Dosei.v./AUCi.v.×Doseoral

[3] = assay type: physicochemical; settings: 1 mg/mL in acetonitrile, −80 °C
[4] = test system: SARS-CoV-2 (USA-WA1/2020); design: method as in PMID 35229034; settings: SARS-CoV-2 (USA-WA1/2020) in Vero E6 cells; read-out: EC50 to neutralize SARS-CoV-2; cited from earlier work
[5] = test system: cathepsin L; settings: selective over cathepsins B and K; cited from earlier work
[6] = design: method as in PMID 22915796, PMID 27027316; settings: aldehyde bisulfite prodrug; cited from earlier work
[7] = Auto-sampler (10 °C 24 h), nominal 1.5 ng/mL
[8] = Auto-sampler (10 °C 24 h), nominal 25 ng/mL
[9] = Auto-sampler (10 °C 24 h), nominal 400 ng/mL
[10] = Bench top (4 h, 4 °C), nominal 1.5 ng/mL
[11] = Bench top (4 h, 4 °C), nominal 25 ng/mL
[12] = Bench top (4 h, 4 °C), nominal 400 ng/mL
[13] = Freeze and thaw (−80 °C to 4 °C, 3 cycles), nominal 1.5 ng/mL
[14] = Freeze and thaw (−80 °C to 4 °C, 3 cycles), nominal 25 ng/mL
[15] = Freeze and thaw (−80 °C to 4 °C, 3 cycles), nominal 400 ng/mL
[16] = Long-term (−80 °C, 20 days), nominal 1.5 ng/mL
[17] = Long-term (−80 °C, 20 days), nominal 400 ng/mL
[18] = male, Sprague-Dawley, in vivo, iv, rat, i.v. 5 mg/kg MPI8 sulfonate, NCA
[19] = male, Sprague-Dawley, in vivo, rat, oral 50 mg/kg MPI8 sulfonate, NCA
[20] = rat, i.v. 5 mg/kg MPI8 sulfonate, NCA

Compound: CC(OC(C)(C)C)C(NC(=O)OCc1ccccc1)C(=O)NC(CC1CCCCC1)C(=O)NC(C=O)CC1CCNC1=O (stereo not drawn) [MPI8]
- Calculated concentration (Mean ± SD) [1, 7]: 1.44 ± 0.11 ng/mL
- Stability accuracy (RE%) [1, 7]: −4.33%
- Calculated concentration (Mean ± SD) [1, 8]: 26.8 ± 1.91 ng/mL
- Stability accuracy (RE%) [1, 8]: 7.20%
- Calculated concentration (Mean ± SD) [1, 9]: 458.5 ± 47.18 ng/mL
- Stability accuracy (RE%) [1, 9]: 14.63%
- Calculated concentration (Mean ± SD) [1, 10]: 1.35 ± 0.11 ng/mL
- Stability accuracy (RE%) [1, 10]: −9.87%
- Calculated concentration (Mean ± SD) [1, 11]: 21.3 ± 0.12 ng/mL
- Stability accuracy (RE%) [1, 11]: −14.80%
- Calculated concentration (Mean ± SD) [1, 12]: 340.25 ± 14.03 ng/mL
- Stability accuracy (RE%) [1, 12]: −14.94%
- Calculated concentration (Mean ± SD) [1, 13]: 1.33 ± 0.08 ng/mL
- Stability accuracy (RE%) [1, 13]: −11.17%
- Calculated concentration (Mean ± SD) [1, 14]: 23.5 ± 1.41 ng/mL
- Stability accuracy (RE%) [1, 14]: −6.00%
- Calculated concentration (Mean ± SD) [1, 15]: 362.2 ± 11.56 ng/mL
- Stability accuracy (RE%) [1, 15]: −9.45%
- Calculated concentration (Mean ± SD) [1, 16]: 1.44 ± 0.19 ng/mL
- Stability accuracy (RE%) [1, 16]: −4.22%
- Calculated concentration (Mean ± SD) ([1]; Long-term (−80 °C, 20 days), nominal 25 ng/mL): 25.18 ± 1.37 ng/mL
- Calculated concentration (Mean ± SD) [1, 17]: 399 ± 17.61 ng/mL
- Stability accuracy (RE%) [1, 17]: −0.25%
- Degradation under the experimental conditions ([1]; conditions of Table 4): No significant degradation
- Stability at room temperature in rat plasma ([1]; room temperature): not stable
- Bench top stability accuracy (RE%) ([1]; room temperature, 50 ng/mL, n = 4): −27.6%
- C0 at 2 min ([2]; male, Sprague-Dawley, in vivo, iv, rat, i.v. 5 mg/kg MPI8 sulfonate, 2 min after dosing, read-out: Mean initial plasma concentration): 4480 ng/mL
- concentration at 10 h ([2]; male, Sprague-Dawley, in vivo, iv, rat, i.v. 5 mg/kg MPI8 sulfonate, 10 h post-dose, read-out: Mean plasma concentration): 1.24 ng/mL
- AUC(0-inf) [2, 18]: 618 ± 15.7 ng·h/mL
- MRT [2, 18]: 0.54 ± 0.1 h
- half-life [2, 18]: 2.75 ± 0.53 h
- AUC(0-t) [2, 18]: 613 ± 15.4 ng·h/mL
- AUC(0-inf) [2, 19]: 1180 ± 288 ng·h/mL
- MRT [2, 19]: 2.52 ± 0.16 h
- half-life [2, 19]: 1.22 ± 0.46 h
- Tmax ([2]; male, Sprague-Dawley, in vivo, rat, oral 50 mg/kg MPI8 sulfonate, NCA, no unit in table (h)): 2.17 ± 0.58 h
- AUC(0-t) [2, 19]: 1180 ± 290 ng·h/mL
- CL/F ([2]; male, Sprague-Dawley, in vivo, rat, oral 50 mg/kg MPI8 sulfonate, NCA, read-out: CL/F (converted)): 733 mL/min/kg
- Vd/F ([2]; male, Sprague-Dawley, in vivo, rat, oral 50 mg/kg MPI8 sulfonate, NCA, read-out: Vz/F): 81.6 L/kg
- bioavailability ([2]; male, Sprague-Dawley, rat, in vivo, 50 mg/kg, rat, oral 50 mg/kg vs i.v. 5 mg/kg MPI8 sulfonate, read-out: F (oral bioavailability)): 15.8%
- Cmax ([2]; male, Sprague-Dawley, rat, in vivo, 50 mg/kg, oral 50 mg/kg MPI8 sulfonate): 601 ng/mL
- Cmax ([2]; male, Sprague-Dawley, rat, in vivo, 50 mg/kg, oral 50 mg/kg MPI8 sulfonate, NCA, no unit in table (ng/mL)): 601 ± 75 ng/mL
- CL/F [2, 20]: 110.116 ± 3.5637 mL/min/kg
- Vz/F [2, 20]: 26,324.66 ± 5882.81 ml/kg
- Plasma concentration ([2]; rat, i.v. 5 mg/kg MPI8 sulfonate, by 24 h): undetectable
- Stock solution stable for [3]: 3 months
- EC50 [4]: 30 nM
- Potency toward cathepsin L [5]: potent

Compound: CC(C)C[C@H](NC(=O)OCc1ccccc1)C(=O)N[C@@H](C[C@@H]1CCNC1=O)C(O)S(=O)(=O)[O-].[Na+] (stereo partly drawn) [GC376]
- Conversion into active aldehyde form [6]: quickly convert

Compound: Cc1cc(=O)n(-c2ccccc2)n1C [AP, antipyrine, reference compound]
- Stock solution stable for [3]: 12 months

Compound: CC(OC(C)(C)C)C(NC(=O)OCc1ccccc1)C(=O)NC(CC1CCCCC1)C(=O)NC(CC1CCNC1=O)C(O)S(=O)(=O)O (stereo not drawn) [MPI8 sulfonate]
- Conversion of prodrug to MPI8 in vivo ([2]; in vivo, rats): rapid conversion; also recorded: rapidly converts
